pIC50: −log10 of the molar value.
How the values were obtained:
cyclin D1/cdk 4 enzyme = target: T1, cyclin D1/cdk 4 enzyme (Homo sapiens, UniProt P11802); assay: CDK4 ELISA kinase assay (phospho-Rb ser 795 detection); format: biochemical; conditions: In Vitro Enzyme Assays, 200 μM ATP, read-out: CDK4 IC50
T1 construct: made in house; host or cells: Sf9 insect cells, recombinant baculovirus
Outline: (§1)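 Inhibition was derived from A450 relative to control wells lacking compound, following an anti-phospho-Rb Ser795 sandwich of HRP detection. The reactions combined coated GST-Rb fragment, 200 μM ATP and baculovirus-expressed cyclin/CDK enzymes, incubated for 1 h at 30° C.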

cyclin E/CDK2 enzyme = target: T2, cyclin E/CDK2 enzyme (Homo sapiens, UniProt P24941); assay: CDK2 ELISA kinase assay (phospho-Rb ser 795 detection); format: biochemical; conditions: In Vitro Enzyme Assays, read-out: CDK2 IC50
T2 construct: made in house; host or cells: Sf9 insect cells, recombinant baculovirus
Outline: as §1

cyclin B/CDK1 enzyme = target: T3, cyclin B/CDK1 enzyme (Homo sapiens, UniProt P06493); assay: CDK1 ELISA kinase assay (phospho-Rb ser 795 detection); format: biochemical; conditions: In Vitro Enzyme Assays, read-out: CDK1 IC50
T3 construct: purchased New England BioLabs; host or cells: Sf9 insect cells, recombinant baculovirus
Outline: as §1

BT474 = assay: Cytotoxicity assay (SRB), BT474; format: cell-based; conditions: Homo sapiens, BT-474, 144 h, BT474 cells, SRB, 6 days; read-out: In Vitro Cellular Activity IC50 BT474
Outline: (§2)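 Plate cells, let them attach overnight, add compound dilutions in RPMI 1640/5% FBS, and incubate 3 days (BT474 6 days). Then fix with TCA, stain with SRB, dissolve the dye in Tris and read at 540 nm.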

HCT-116 = assay: Cytotoxicity assay (SRB), HCT-116; format: cell-based; conditions: Homo sapiens, HCT-116, 72 h, HCT116 cells, SRB, three days; read-out: In Vitro Cellular Activity IC50 HCT116
Outline: as §2

LoVo = assay: Cytotoxicity assay (SRB), LoVo; format: cell-based; conditions: Homo sapiens, LoVo, 72 h, LoVo cells, SRB, three days; read-out: In Vitro Cellular Activity IC50 LOVO
Outline: as §2

MCF-7 = assay: Cytotoxicity assay (SRB), MCF-7; format: cell-based; conditions: Homo sapiens, MCF7, 72 h, MCF-7 cells, SRB, three days; read-out: In Vitro Cellular Activity IC50 MCF-7
Outline: as §2

SK-UT-1B = assay: In Vitro Cellular Activity (Table III), SK-UT-1B; format: cell-based; conditions: Homo sapiens, Skut1B; SK-UT-1B cells

T3 sequence (P06493 whole entry): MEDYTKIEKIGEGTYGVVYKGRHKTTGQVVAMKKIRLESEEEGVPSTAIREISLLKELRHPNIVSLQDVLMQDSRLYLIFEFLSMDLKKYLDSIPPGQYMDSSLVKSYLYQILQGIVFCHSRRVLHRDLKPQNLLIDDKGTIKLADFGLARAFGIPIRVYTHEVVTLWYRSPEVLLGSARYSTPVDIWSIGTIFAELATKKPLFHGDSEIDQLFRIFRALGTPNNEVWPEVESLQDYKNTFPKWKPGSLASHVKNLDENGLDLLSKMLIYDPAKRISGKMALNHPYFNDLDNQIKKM
T3 sequence (P14635 whole entry partner): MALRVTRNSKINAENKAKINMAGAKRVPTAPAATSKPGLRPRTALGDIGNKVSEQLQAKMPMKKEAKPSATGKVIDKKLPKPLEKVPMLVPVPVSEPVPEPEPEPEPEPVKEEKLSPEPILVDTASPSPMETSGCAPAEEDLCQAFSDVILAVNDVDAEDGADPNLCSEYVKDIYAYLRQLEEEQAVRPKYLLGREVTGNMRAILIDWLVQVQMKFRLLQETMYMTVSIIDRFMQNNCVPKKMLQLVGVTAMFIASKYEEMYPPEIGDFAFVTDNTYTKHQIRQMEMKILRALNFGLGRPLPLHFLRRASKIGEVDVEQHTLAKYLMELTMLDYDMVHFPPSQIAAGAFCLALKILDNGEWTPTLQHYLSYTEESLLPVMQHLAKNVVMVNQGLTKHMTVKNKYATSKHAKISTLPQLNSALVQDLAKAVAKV
T1 sequence (P11802 whole entry, species assumed): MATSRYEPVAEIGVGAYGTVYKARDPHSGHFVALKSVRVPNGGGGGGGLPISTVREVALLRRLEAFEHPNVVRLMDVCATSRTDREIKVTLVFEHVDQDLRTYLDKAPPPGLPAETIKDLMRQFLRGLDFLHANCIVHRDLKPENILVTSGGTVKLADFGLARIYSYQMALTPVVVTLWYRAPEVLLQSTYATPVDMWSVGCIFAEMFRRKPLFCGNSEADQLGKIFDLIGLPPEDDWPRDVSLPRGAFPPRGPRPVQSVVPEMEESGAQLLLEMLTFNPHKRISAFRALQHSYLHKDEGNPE
T1 sequence (P24385 whole entry partner, species assumed): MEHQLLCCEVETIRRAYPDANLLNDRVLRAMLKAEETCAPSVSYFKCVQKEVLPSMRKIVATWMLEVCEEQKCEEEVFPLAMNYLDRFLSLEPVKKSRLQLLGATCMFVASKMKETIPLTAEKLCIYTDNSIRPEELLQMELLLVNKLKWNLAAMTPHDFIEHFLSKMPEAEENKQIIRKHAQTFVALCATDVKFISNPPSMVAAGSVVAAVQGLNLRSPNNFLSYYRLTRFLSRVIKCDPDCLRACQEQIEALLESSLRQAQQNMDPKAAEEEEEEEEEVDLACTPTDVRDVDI

Structure (SMILES) | pIC50 (cyclin D1/cdk 4 enzyme) | pIC50 (cyclin E/CDK2 enzyme) | pIC50 (cyclin B/CDK1 enzyme) | pIC50 (BT474) | pIC50 (HCT-116) | pIC50 (LoVo) | pIC50 (MCF-7) | melting point | pIC50 (SK-UT-1B)
O=C1NC(=O)c2ccccc2/C1=C\c1ccc(O)cc1 [Example 11, (4E)-4-(4-hydroxybenzylidene)isoquinoline-1,3(2H,4H)-dione] | < 4.30 | < 4.43 | < 4.43 | < 4.30 | 5.64 | 5.17 | 4.74 | 242 to 243 °C | < 4.44
O=C1NC(=O)c2ccccc2/C1=C/Nc1ccc(-c2ccccc2)cc1 [Example 21, (4Z)-4-[(1,1′-Biphenyl-4-ylamino)methylene]isoquinoline-1,3(2H,4H)-dione] | – | – | – | < 4.30 | < 4.30 | < 4.30 | < 4.30 | 261 to 262 °C | 4.71
O=C1NC(=O)c2ccccc2/C1=C/Nc1cccc(CN2CCCCCC2)c1 [Example 17, (4Z)-4-({[3-(Azepan-1-ylmethyl)phenyl]amino}methylene)isoquinoline-1,3(2H,4H)-dione] | – | – | – | 4.52 | 4.85 | 4.72 | 4.70 | 116 to 117 °C | 4.80
O=C1NC(=O)c2ccc(Br)cc2/C1=C/Nc1ccc(CN2CCCCC2)cc1 [Example 24, (4Z)-6-Bromo-4-{[(4-piperidin-1-ylmethyl)phenyl]amino}methyleneisoquinoline-1,3(2H,4H)-dione] | – | – | < 4.30 | 5.32 | 5.30 | 5.22 | 5.51 | 222 to 225 °C | 5.11
O=C1NC(=O)c2ccccc2/C1=C/Nc1ccc(CN2CCCCCC2)cc1 [Example 26, (4Z)-4-({[4-(Azepan-1-ylmethyl)phenyl]amino}methylene)isoquinoline-1,3(2H,4H)-dione] | 5.37 | < 4.57 | < 4.57 | – | 5.14 | – | 5.10 | 198 to 200 °C | 5.21
O=C1NC(=O)c2ccccc2/C1=C/Nc1ccc(CCN2CCCC2)cc1 [Example 5, (4Z)-4-({[4-(2-Pyrrolidin-1-ylethyl)phenyl]amino}methylene)isoquinoline-1,3(2H,4H)-dione] | 4.99 | < 4.55 | < 4.55 | – | 4.97 | – | 5.10 | 224 to 225 °C | 4.99
Cn1ccnc1Sc1ccc(N/C=C2\C(=O)NC(=O)c3ccccc32)cc1Cl [Example 14, (4Z-4-[{3-Chloro-4[(1-methyl-1H-imidazole-2-uy)thio]phenyl}amino)methylene]isoquinoline-1,3(2H,4H)-dione] | – | – | – | 4.42 | 5.06 | < 4.30 | < 4.30 | 264 to 265 °C | 4.74
O=C1NC(=O)c2ccccc2/C1=C/Nc1ccc(CN2CCCCC2)cc1 [Example 13, (4Z)-4-({[4-(Piperidin-1-ylmethyl)phenyl]amino}methylene)isoquinoline-1,3(2H,4H)-dione] | 5.10 | – | < 4.55 | 4.57 | 5.07 | 4.82 | 5.14 | 185 to 186 °C | 4.95
CC(C)(C)OC(=O)N1CCN(Cc2ccc(N/C=C3\C(=O)NC(=O)c4ccccc43)cc2)CC1 [Example 34] | – | – | – | 4.60 | 4.85 | < 4.30 | 4.42 | 219 to 220 °C | 4.82
CN1CCN(Cc2ccc(N/C=C3\C(=O)NC(=O)c4ccccc43)cc2)CC1 [Example 20] | 5.17 | – | < 4.59 | – | 5.00 | – | 4.85 | 231 to 232 °C | 4.73
